{
  "source": "patent US20190247405A1",
  "about": "“TREATMENT OF SMA” (Hoffmann-La Roche Inc., priority 2016, published 2019)",
  "key": {"[1]": {"test_system": "SMNF7/F7; NSE-Cre mice (SMA transgenic mice)", "test": "Survival and body weight in transgenic mouse model of SMA", "assay_type": "in vivo", "details": "for mice still alive at 40 days: Conclusion section (vehicle 15%); for animals still alive after 40 days: Results section (vehicle 15%)", "text": "Deletion of the smn gene is lethal in mice (early embryonic lethality). Mutant mice with deletion of smn exon7 restricted to neurons (NSE-Cre; SMNF7/F7, referred to here as SMA transgenic mice) are viable and display a phenotype similar to that described in human patients suffering from the severe types of spinal muscular atrophy (Frugier T., Tiziano F D et al. Hum Mol Genet. 2000, 9, 849-858.)\nA pre-clinical study has been carried out on transgenic mouse model of SMA in the severe modelSMN^F7/F7; NSE-Cre with Olesoxime to test for signs of possible efficacy to treats SMA patients.\nEndpoint scores included survival (daily observation), body weight (animals were weighed 3 times/week).\nOlesoxime (powder) was mixed with Cremophore EL (SIGMA C5135), absolute ethanol (CARLO ERBA RPE 414571) and DMSO (ALLDRICH 27685-5) ([…], respective % of the final volume). After complete dissolution, PBS (phosphate buffered saline) was added (85% of the final volume). Solutions were prepared in volumes sufficient for 3 days; vehicle placebo consisted in the same mixture of excipients without the active principle. Daily treatment (subcutaneous injections, 10 ml/kg) started from P21 to death. Effected mice were killed by cervical dislocation when they became unable to feed, according to ethical considerations or around 45 days for control mice. Experiments were performed blind.\n“log Rank”, also called “Mantel-Haenszel” was the statistic test being used to compare the two survival curves. It is a type “Khi2” test that was already available in the library “survival” from R. software (http://lib.stat.cmu.edu/R/CRAN).\nThe test was applied simultaneously on the 3 groups of mice and for all five stages.\nAll the mice which died before day 26 were removed from the study. There were 8 in total."}, "[2]": {"test_system": "patients aged 3-25 years with type 2 or non-ambulatory type 3 SMA", "test": "Randomized, double-blind, placebo-controlled Phase 2 study (NCT01302600) of olesoxime", "assay_type": "in vivo, human", "details": "100 mg/ml oral liquid suspension, 10 mg/kg per day", "procedure": "A randomized double blind, placebo-controlled, phase 2 study on olesoxime (NTC01302600) was performed on SMA type II and type III patients aged 3 to 25 years.\nA randomized, double-blind, placebo-controlled, Phase 2 study (NCT01302600) was performed in 22 secondary care centres in Belgium, France, Germany, Italy, Netherlands, Poland and the UK. Safety and efficacy of olesoxime (TRO19622/RG6083) were assessed in patients aged 3-25 years with type 2 or non-ambulatory type 3 SMA confirmed by weakness and hypotonia, genetic diagnosis, Motor Function Measure (MFM) domains 1 and 2 (D1+D2) relative score (percentage of the maximum sum)≥15% and Hammersmith Functional Motor Scale (HFMS) score at baseline≥3 (non-ambulant≤38). […]\nMFM is a validated quantitative scale allowing measurement of the functional motor abilities of an individual affected by a neuromuscular disease, regardless of the diagnosis and the extent of motor deficiencies (Vuillerot et al. Arch Phys Med Rehabil 2013; 94(8): 1555-61). […] Each item is scored on a 4-point (0-3) Likert type scale, where each option contains a clear indication of the level to which the patient has achieved the functional task and higher scores reflect better functional ability. […]\nA total score, in addition to the three dimensions, can be calculated, with all scores expressed as a percentage of the maximum possible sum of the item scores. […]"}, "[3]": {"test_system": "MFM D1+D2 score in SMA patients", "test": "Longitudinal kinetic-pharmacodynamic (KPD) exposure-response analysis and simulations on Phase 2 PK and MFM D1+D2 data", "set-up": "species or system human", "text": "The pharmacokinetics (PK) and efficacy data from the herewith referred clinical trial study were used to investigate the relationship between olesoxime pharmacokinetic exposure (i.e., average trough concentration Caverage) and the primary efficacy outcome (i.e.: MFM D1+D2 score). A longitudinal kinetic-pharmacodynamic (KPD) approach was applied [Jacqmin et al., 2007]. In the placebo group the progression of the disease over time was best described by a linear function (slope of −0.0201 unit/week with relative standard error of 27%). […] (Data on file).\nSimulations were conducted by using this exposure-response function and its associated uncertainty."}},
  "note": "Entries after “also recorded” stand apart in the source; their conditions may differ.",
  "data": [
    {"smiles": "CC(C)CCC[C@@H](C)[C@H]1CC[C@H]2[C@@H]3CCC4=CC(=NO)CC[C@]4(C)[C@H]3CC[C@]12C", "note": "[olesoxime, Cholest-4-en-3-one oxime]", "values": [
      {"measurement": "mice still alive at 40 days", "setting": "[1]; 10 mg/kg daily s.c.", "result": 26, "unit": "%"},
      {"measurement": "animals still alive after 40 days", "setting": "[1]; 10 mg/kg daily s.c.", "result": 25, "unit": "%"},
      {"measurement": "mice still alive at 40 days", "setting": "[1]; 30 mg/kg daily s.c.", "result": 50, "unit": "%"},
      {"measurement": "animals still alive after 40 days", "setting": "[1]; 30 mg/kg daily s.c.", "result": 45, "unit": "%"},
      {"measurement": "life span / survival", "setting": "[1]; 30 mg/kg/day s.c. from day 21 to death, log rank test p<0.05 vs vehicle", "result": "significant increase in life span; also recorded: longer life span; also recorded: Improves Survival"},
      {"measurement": "body weight", "setting": "[1]; 10 or 30 mg/kg daily s.c. vs vehicle", "result": "no difference in body weight"},
      {"measurement": "motor function", "setting": "[2]; SMA type II and III patients", "result": "demonstrated potential to maintain motor function"},
      {"measurement": "tolerability", "setting": "[2]; SMA type II and III patients aged 3 to 25 years", "result": "well tolerated"},
      {"measurement": "slope of linear exposure-response relationship (average trough concentration vs MFM D1+D2 score)", "setting": "[3]; KPD model, relative standard error of 36%", "result": 0.291, "unit": "unit/ng/mL"},
      {"measurement": "plateau of effect in exposure-response relationship", "setting": "[3]; at the dose of 10 mg", "result": "did not reach a plateau"}
    ]}
  ]
}
